From US20150258052A1, “METHODS OF USING FEXARAMINE AND AGENTS THAT INCREASE SYMPATHETIC NERVOUS SYSTEM ACTIVITY TO PROMOTE BROWNING OF WHITE ADIPOSE TISSUE” (Salk Institute for Biological Studies, priority 2014, published 2015) come the findings set out here.

For one data set, the target named is T1, human TGR5 (Homo sapiens, UniProt Q8TDU6).
T1 construct: expressed in transfected cells; host or cells: HEK293
T1 sequence (Q8TDU6 1-330): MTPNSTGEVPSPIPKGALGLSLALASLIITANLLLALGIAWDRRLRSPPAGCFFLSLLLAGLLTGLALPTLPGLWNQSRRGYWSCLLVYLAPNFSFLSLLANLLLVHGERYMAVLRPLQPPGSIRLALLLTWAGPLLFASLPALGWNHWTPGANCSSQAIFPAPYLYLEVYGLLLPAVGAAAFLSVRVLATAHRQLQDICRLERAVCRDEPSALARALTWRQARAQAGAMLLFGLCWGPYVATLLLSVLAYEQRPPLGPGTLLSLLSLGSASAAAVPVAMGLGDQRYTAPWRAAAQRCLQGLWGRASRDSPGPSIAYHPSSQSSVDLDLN
In words: TGR5 cAMP-response element luciferase reporter in HEK293 cells. The data set is classed as cell-based. The note with it: HEK293 cells transfected with human TGR5, treated 5 hours. On the procedure:
HEK293 cells were transfected with expression vectors for cAMP-response element luciferase, β-galactosidase and human TGR5. 24 hours after transfection, cells were treated with fexaramine or INT-777 (a TGR5 agonist)
at the indicated concentrations for 5 hours, prior to measurement of luciferase activity. Data represent the mean±SD. Statistical analysis was performed with the Student's t test. *p<0.05, **p<0.01.

The next data set relates to DIO mice. As to the kind of experiment: Chronic oral fexaramine in diet-induced obesity (DIO) mice: weight, adiposity, serum parameters, GTT, ITT. It is filed as in vivo. The note with it: for glucose tolerance (glucose tolerance test) / insulin sensitivity (insulin tolerance test): PO 5 weeks. On the procedure:
FIGS. 2A-2G are graphs illustrating the reduction of diet-induced obesity and improvement in metabolic homeostasis with fexaramine. Mice were fed a high fat diet (HFD) for 14 weeks and then administered daily oral injections of vehicle (open boxes) or fexaramine (100 mg/kg) (solid boxes) for 5 weeks with HFD. Data represent the mean±STD. Statistical analysis was performed with the Student's t test (*p<0.05, **p<0.01).
FIG. 2A is a line chart illustrating changes in body weight of mice fed a high fat diet (HFD) for 14 weeks and then administered daily oral injections of vehicle (open boxes) or fexaramine (100 mg/kg) (solid boxes) for 5 weeks with HFD. n=8 per group.
FIG. 4A is a line graph showing the effects of fexaramine at various dosage levels on the body weight of mice fed a HFD for 14 weeks and then administered daily oral injections of vehicle or fexaramine (10, 50 or 100 mg/kg) for 5 weeks with a HFD. Data represent the mean±STD. Statistical analysis was performed with the Student's t test (*p<0.05, **p<0.01).
FIG. 4B is a set of digital images showing histological analysis of the ileum and colon following treatment with fexaramine or vehicle. Mice were fed on HFD for 14 weeks, and then administered daily oral injections of vehicle or fexaramine (100 mg/kg) for 5 weeks with HFD.
FIG. 4C is a line graph showing glucose tolerance tests in mice fed a HFD for 14 weeks and then administered daily oral injections of vehicle or fexaramine (10, 50 or 100 mg/kg) for 5 weeks with HFD. Data represent the mean±STD. Statistical analysis was performed with the Student's t test (*p<0.05, **p<0.01).
The physiological effects of fexaramine in established obesity (diet-induced obesity, DIO) models were evaluated. C57BL/6J mice were fed a diet of 60% fat for 14 weeks and then treated PO with vehicle or fexaramine (100 mg/kg) for 5 weeks. […] Analyses of serum metabolic parameters including leptin, insulin, cholesterol, and resistin reflected that fexaramine-mediated weight gain resistance is accompanied by improved endocrine and metabolic profiles (FIGS. 2D and 4D).
Obesity and its metabolic complications are associated with chronic low-grade inflammation, reflected by elevated serum levels of inflammatory cytokines. […] Therefore, glucose tolerance tests (GTTs) and insulin tolerance tests (ITTs) were performed to determine if glucose homeostasis was improved in fexaramine-treated DIO mice.

The subject of data set [1] is FXR target gene expression. In words: FXR target gene expression (qPCR) in intestine, liver and kidney after acute PO or IP fexaramine. It is filed as in vivo, mice. The procedure:
FIGS. 1A-1C are a comparative expression chart and two bar charts, respectively, illustrating increased levels of FXR target gene expression in the intestine relative to expression in the liver and kidney. 8 week-old mice were treated with vehicle or fexaramine (100 mg/kg) via oral (PO) or intraperitoneal (IP) injection for three days (FIGS. 1A-1B) or five days (FIG. 1C).
FXR target gene expression was analyzed by qPCR. Gene expression was normalized against a vehicle-treated group.
Data represent the mean±SD. Statistical analysis was performed with the Student's t test. *p<0.05, **p<0.01.
FIG. 1F is a bar chart illustrating that orally delivered Fexaramine is intestinally-restricted. Mice received vehicle or Fexaramine (100 mg/kg) via per os (PO) or intraperitoneal (IP) injection for 5 days. Expression of the FXR target gene SHP after PO or IP injection in selected tissues is shown.
(§1) Upon exploration of the in vivo effects of fexaramine (Fex) administration, it was discovered that due to ineffectual absorption, oral (PO) and intraperitoneal (IP) drug delivery produced very different effects (FIGS. 1D and 1E).
A general note: Quantitative PCR measures a nucleic acid by following its amplification.

A short description of data set [2]: LC/MS quantification of serum fexaramine after PO or IP administration. It is filed as in vivo, mice. The procedure: FIG. 1D is a schematic diagram illustrating an experimental procedure used to evaluate fexaramine, where mice were treated with vehicle or fexaramine (100 mg/kg) via PO or IP injection, and LC/MS quantification of serum fexaramine was conducted five days later.
FIG. 1E is a bar chart illustrating serum fexaramine concentrations after administration as described in FIG. 1D. Data represent mean values±STD. Statistical analysis was performed with the Student's t test (*p<0.05, **p<0.01).
as §1

The mark [3] stands for this setting: PO, 100 mg/kg, listed as fexaramine.

`COC(=O)/C=C/c1cccc(N(Cc2ccc(-c3ccc(N(C)C)cc3)cc2)C(=O)C2CCCCC2)c1` [Fex, fexaramine]: on human TGR5, the “TGR5 activation (luciferase activity)” value was “does not activate”. In addition, the “TGR5 activation (luciferase activity)” value at human TGR5 (listed as fexaramine) is listed as “fails to activate TGR5”. Moreover, in the data set with DIO mice (DIO mice, 100 mg/kg PO 5 weeks), the “intestinal toxicity (histology of ileum and colon)” value is on record as “no signs of intestinal toxicity”; the “overall fat mass (MRI)” value is recorded as “reduced overall fat mass”; the “serum levels of inflammatory cytokines TNFα, IL-1α, IL-1β, IL-17 and MCP-1” value is reported as “markedly decreased”; the “wet weights of subcutaneous (inguinal) and visceral (gonadal and mesenteric) adipose depots” value was “significant reductions”. Moreover, the “glucose, insulin, leptin, cholesterol and resistin levels” value in the data set on DIO mice (DIO mice, 100 mg/kg PO 5 weeks, serum after 8 hours fasting) was “reduced glucose, insulin, leptin, cholesterol, and resistin levels”. In addition, the “prevention of weight gain, dose dependence” value with DIO mice (DIO mice, 10, 50 or 100 mg/kg PO 5 weeks) is listed as “dose-dependent manner”. In addition, the weight gain entry in the data set with DIO mice (DIO mice, HFD 14 weeks then 100 mg/kg PO 5 weeks) is “prevented weight gain”. Besides, in the data set on DIO mice (DIO mice), the “glucose tolerance (glucose tolerance test)” value is given as “dose-dependent improvements” and the “insulin sensitivity (insulin tolerance test)” value is “dose-dependent improvements”. Further, in the data set on DIO mice (DIO mice, listed as fexaramine), the “glucose tolerance (glucose tolerance test)” value is “improved glucose clearance” and the “insulin sensitivity (insulin tolerance test)” value is given as “improved insulin sensitivity”. In addition, in the data set with DIO mice (DIO mice, highest dose), the “weight gain at the highest dose” value is on record as “almost completely abrogated”. In data set [1] (IP, 100 mg/kg for five days), the “induction of FXR target gene SHP in intestine” value is “robust induction”. In addition, in data set [1] (IP, 100 mg/kg, five days), the “FXR target gene expression in liver, kidney and intestines” value is “increases FXR target gene expression in the liver and kidney, in addition to the intestines”. Further, the “induction of SHP in liver and kidney” value in data set [1] (PO versus IP, 100 mg/kg for five days) was “only seen in liver and kidney after IP treatment”. For the same molecule, in data set [1] (PO, 100 mg/kg), the “FXR target gene expression (IBABP, OSTα, FGF15) in intestine” value is on record as “induced multiple FXR target genes in the intestine” and the “FXR target gene expression in liver or kidney” value is recorded as “failed to affect the expression of these genes in liver or kidney”. Also, in data set [1] (PO, 100 mg/kg for five days), the “induction of FXR target gene SHP in intestine” value is recorded as “robust induction”. Besides, in data set [1] (setting [3]), the “FXR target gene expression (IBABP, OSTα, FGF15) in intestine” value is recorded as “substantially enhances FXR target gene expression in the intestine” and the “FXR target gene expression in liver or kidney” value was “not in the liver or kidney”. The molecule also gave a serum Fex level after PO relative to IP levels in data set [2] (acute 100 mg/kg, PO compared to IP) of 10%. The concentration at 5 days in data set [2] (mouse, serum, PO 100 mg/kg, read-out: serum levels of Fex after PO administration) was below 25 nM.
